Experimental findings from PMC4286281, “Profiling of the Tox21 Chemical Collection for Mitochondrial Function to Identify Compounds that Acutely Decrease Mitochondrial Membrane Potential” (Environmental Health Perspectives, 2014) are described below.

This experiment relates to mitochondrial membrane potential (MMP) in HepG2 cells. In words: qHTS mitochondrial membrane potential (MMP) assay with m-MPI dye, multiplexed with CellTiter-Glo cell viability. In kind it is cell-based, human. The settings on record: for MMP assay activity outcome (active antagonist / inactive / inconclusive): call from triplicate runs, multichannel readout and cell viability; for Emax: read-out: Efficacy. Background: Quantitative high-throughput screening tests each substance at several concentrations.

Setting [1] is: Homo sapiens, HepG2, 1 h, read-out: Potency.
Setting [2] is: Homo sapiens, HepG2 cells, 1 hr treatment, ratio 590 nm/535 nm, read-out: IC50 in the MMP assay (decrease of MMP).
Where [3] appears, read: Table S4, 20 most potent active compounds for the MMP screen, HepG2, 1 hr.

Where two headings read alike, the source gives them in different places.

With `O=C(O)C1C(C(=O)O)C2(Cl)C(Cl)=C(Cl)C1(Cl)C2(Cl)Cl` (centres unmarked) [chlorendic acid], the “MMP assay activity outcome (active antagonist / inactive / inconclusive)” value (HepG2 cells, 1 hr treatment) was “inactive”.
As for `CCN1/C(=C/C=C/C=C/c2sc3ccccc3[n+]2CC)Sc2ccccc21` [Dithiazanine iodide], the Emax (Homo sapiens, HepG2, 1 h) worked out at 85.4%. Moreover, under setting [1], the IC50 stood at 95.8 nM.
As for `COc1cccc2c1C(=O)c1c(O)c3c(c(O)c1C2=O)C[C@@](O)(C(=O)CO)C[C@@H]3O[C@H]1C[C@H](N)[C@H](O[C@@H]2CCCCO2)[C@H](C)O1` [Pirarubicin, reference compound], the IC50 under setting [2] came to 600 nM.
As to `COC(=O)c1ccc(O)cc1` [methylparaben], the “MMP assay activity outcome (active antagonist / inactive / inconclusive)” value (HepG2 cells, 1 hr treatment) is “inactive”.
On to `CCC/C=C/C=C/C(=O)O[C@H]1/C(=C/C(=O)OC)C[C@H]2C[C@H]([C@@H](C)O)OC(=O)C[C@H](O)C[C@@H]3C[C@H](OC(C)=O)C(C)(C)[C@](O)(C[C@@H]4C/C(=C/C(=O)OC)C[C@H](/C=C/C(C)(C)[C@]1(O)O2)O4)O3` [bryostatin 1, Bryostatin 1, reference compound], for which the Emax (Homo sapiens, HepG2, 1 h) was 105%. Besides, the IC50 by setting is: under setting [1], 9.58 nM; under setting [2], 9.6 nM.
Take `N#CC(C#N)=NNc1ccc(OC(F)(F)F)cc1` [FCCP, carbonyl cyanide 4-(trifluoromethoxy) phenylhydrazone, reference compound]: under “Homo sapiens, HepG2, 1 h, read-out: IC50 of the positive control, decrease of MMP (mean ± SD)”, the IC50 worked out at 110 ± 70 nM.
In the case of `CN(C)c1ccc(C(=C2C=CC(=[N+](C)C)C=C2)c2ccc(N(C)C)cc2)cc1` [Gentian violet], the Emax (Homo sapiens, HepG2, 1 h) was found to be 91.9%. Besides, the IC50 under setting [1] worked out at 78.8 nM.
Take `CCN=C1C=CC(=C(c2ccc(N(CC)CC)cc2)c2ccc(N(CC)CC)cc2)c2ccccc21.Cl` [basic blue 7, Basic blue 7]: the “Potency rank in the MMP screen” value (HepG2 cells, 1 hr treatment) is “among the most potent compounds”. For the same compound, where the note is “HepG2 cells, 1 hr treatment, ratio 590 nm/535 nm, read-out: IC50 in the MMP assay (decrease of MMP)”, the IC50 amounted to 18.5 nM. Under setting [3], this compound yielded an Efficacy of 86.6%.
For the compound `ClC1=C(Cl)C2(Cl)C3C4C=CC(C4)C3C1(Cl)C2(Cl)Cl` (centres unmarked) [aldrin], the “MMP assay activity outcome (active antagonist / inactive / inconclusive)” value (HepG2 cells, 1 hr treatment) is “active as antagonists”.
On to `CCC[CH2][Sn]([CH2]CCC)([CH2]CCC)[O][Sn]([CH2]CCC)([CH2]CCC)[CH2]CCC` [Bis(tributyltin)oxide], for which the Efficacy is given as 112.1% and the “Potency rank in the MMP screen” value is on record as “among the most potent compounds”. In addition, the IC50 (read-out: Potency) amounted to 91.1 nM.
Turning to `O=C(c1ccccc1)c1cccc(O)c1` [3-hydroxybenzophenone], under setting [2], the IC50 was found to be 27700 nM.
As to plicamycin [reference compound], the “MMP assay activity outcome (active antagonist / inactive / inconclusive)” value (HepG2 cells, 1 hr treatment) is recorded as “active”.
With `Nc1ccc(O)cc1` [4-aminophenol], the “MMP assay activity outcome (active antagonist / inactive / inconclusive)” value (HepG2 cells, 1 hr treatment) is recorded as “active”.
On the same count and under the same terms, the result for `COc1ccc(C(=O)c2ccc(C)cc2)c(O)c1` [mexenone] reads “not active”.
Turning to `NNc1nc(-c2ccc(N)cc2)cs1` [2-Hydrazino-4-(4-aminophenyl) thiazole], the Efficacy under setting [3] is reported as 82.5%. Further, where the note is “Table S4, 20 most potent active compounds for the MMP screen, HepG2, 1 hr, read-out: Potency”, the IC50 was found to be 63.5 nM.
`C=C(C)[C@H]1Cc2c(ccc3c2O[C@@H]2COc4cc(OC)c(OC)cc4[C@@H]2C3=O)O1` [rotenone, reference compound]: under “HepG2 cells, 1 hr treatment”, the “MMP assay activity outcome (active antagonist / inactive / inconclusive)” value is “inconclusive antagonist (cytotoxic)”.
As for `O=C(c1ccccc1)c1ccccc1` [Benzophenone], for the setting “HepG2 cells, 1 hr treatment”, the “MMP assay activity outcome (active antagonist / inactive / inconclusive)” value is “inactive”.
On the same count and under the same terms, under `O=C(c1ccccc1)c1ccccc1O` [2-hydroxybenzophenone] stands “inactive”.
`CCCCC(=O)OCC(=O)[C@]1(O)Cc2c(O)c3c(c(O)c2[C@@H](O[C@H]2C[C@H](NC(=O)C(F)(F)F)[C@H](O)[C@H](C)O2)C1)C(=O)c1c(OC)cccc1C3=O` [valrubicin, reference compound]: the IC50 under setting [2] stood at 1900 nM.
As to `O=C(Nc1ccc([N+](=O)[O-])cc1Cl)c1cc(Cl)ccc1O` [Niclosamide, reference compound], the Emax (Homo sapiens, HepG2, 1 h) was found to be 97.7%. Also, under setting [1], the IC50 was 26.3 nM.
Turning to `Nc1ccc(N)c2c1C(=O)c1ccccc1C2=O` [1,4-Diaminoanthraquinone], for the setting “Homo sapiens, HepG2, 1 h”, the Emax is 82%. Moreover, the IC50 under setting [1] was 33.1 nM.
